Source: patent US20120022149A1, “PHARMACEUTICAL COMPOSITION WITH ENHANCED SOLUBILITY CHARACTERISTICS” (priority 2010, published 2012)

Experiment: Solubility of olopatadine in PEG 6000 and/or PVP vehicles
Assay type: physicochemical
Conditions: Table 1 and FIG. 1

SMILES: CN(C)CC/C=C1/c2ccccc2COc2ccc(CC(=O)O)cc21 [olopatadine]
- solubility of olopatadine relative to the concentration of PEG6000: essentially linear
